Source: the supplement of paper PMC10307832

Key:
Test in all cases: relative viability (nuclei count vs DMSO), 5 days (fraction); higher = more cells survive
Lapatinib + Phenformin = compound: CS(=O)(=O)CCNCc1ccc(-c2ccc3ncnc(Nc4ccc(OCc5cccc(F)c5)c(Cl)c4)c3c2)o1 [Lapatinib] + N=C(N)NC(=N)NCCc1ccccc1 [Phenformin] (partner 250 µM)
Procedure, shortened: (§1)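 After 5 days of treatment, lung cancer cells in 1536-well plates were fixed and stained in a single step (final 0.05% Triton X-100, 1% formaldehyde, 1 ug/ml Hoechst) and their nuclei counted on 4× images. Treatment had been applied by pin tool the day after seeding as one drug alone or as a fixed anchor-drug dose with five library-drug doses (not always all listed) in √10 steps. Relative viability is the nuclei count of treated wells divided by that of vehicle wells, and values are medians of duplicate plates.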

Wnt-C59 + Pictilisib = compound: CC1=NC=CC(=C1)C2=CC=C(C=C2)CC(=O)NC3=CC=C(C=C3)C4=CN=CC=C4 [Wnt-C59] + CS(=O)(=O)N1CCN(Cc2cc3nc(-c4cccc5[nH]ncc45)nc(N4CCOCC4)c3s2)CC1 [Pictilisib] (partner 1 µM)
Procedure, shortened: as §1

Wnt-C59 + Crizotinib = compound: CC1=NC=CC(=C1)C2=CC=C(C=C2)CC(=O)NC3=CC=C(C=C3)C4=CN=CC=C4 [Wnt-C59] + C[C@@H](Oc1cc(-c2cnn(C3CCNCC3)c2)cnc1N)c1c(Cl)ccc(F)c1Cl [Crizotinib] (partner 1 µM)
Procedure, shortened: as §1

Lapatinib + Crizotinib = compound: CS(=O)(=O)CCNCc1ccc(-c2ccc3ncnc(Nc4ccc(OCc5cccc(F)c5)c(Cl)c4)c3c2)o1 [Lapatinib] + C[C@@H](Oc1cc(-c2cnn(C3CCNCC3)c2)cnc1N)c1c(Cl)ccc(F)c1Cl [Crizotinib] (partner 1 µM)
Procedure, shortened: as §1

Cell Line	relative viability (Lapatinib + Phenformin; first compound 0.02 µM)	relative viability (Lapatinib + Phenformin; first compound 0.06325 µM)	relative viability (Lapatinib + Phenformin; first compound 0.2 µM)	relative viability (Lapatinib + Phenformin; first compound 0.6325 µM)	relative viability (Lapatinib + Phenformin; first compound 2 µM)	relative viability (Wnt-C59 + Pictilisib; first compound 0.001 µM)	relative viability (Wnt-C59 + Pictilisib; first compound 0.01 µM)	relative viability (Wnt-C59 + Pictilisib; first compound 0.03162 µM)	relative viability (Wnt-C59 + Pictilisib; first compound 0.1 µM)	relative viability (Wnt-C59 + Crizotinib; first compound 0.001 µM)	relative viability (Wnt-C59 + Crizotinib; first compound 0.01 µM)	relative viability (Wnt-C59 + Crizotinib; first compound 0.03162 µM)	relative viability (Wnt-C59 + Crizotinib; first compound 0.1 µM)	relative viability (Lapatinib + Crizotinib; first compound 0.02 µM)	relative viability (Lapatinib + Crizotinib; first compound 0.06325 µM)	relative viability (Lapatinib + Crizotinib; first compound 0.2 µM)	relative viability (Lapatinib + Crizotinib; first compound 0.6325 µM)	relative viability (Lapatinib + Crizotinib; first compound 2 µM)
SW 1573	0.398	0.338	0.346	0.347	0.354	0.452	0.544	0.563	0.404	0.771	0.764	0.746	0.825	0.762	0.724	0.856	0.829	0.623
NCI-H23	–	–	0.792	0.805	0.761	0.426	0.454	0.467	0.423	0.521	0.463	0.537	0.599	–	–	0.504	0.396	0.412
HCC-15	–	0.398	0.521	0.498	0.484	0.74	0.711	0.732	0.723	0.891	0.82	0.919	0.85	–	0.786	0.808	0.835	0.704
NCI-H1650	0.442	0.313	0.461	0.31	0.307	0.549	0.53	0.645	0.532	1.08	1.02	0.896	0.89	0.977	0.795	0.854	0.9	0.596
LU99A	0.379	0.712	0.743	0.866	0.792	0.309	0.317	0.316	0.321	0.577	0.538	0.622	0.531	0.591	0.464	0.53	0.582	0.597
HOP-62	0.499	0.641	0.635	0.631	0.695	0.63	0.76	0.855	0.693	0.973	0.916	0.974	0.789	–	0.892	0.991	0.934	0.948
LXF-289	0.142	0.482	0.509	0.488	0.52	0.767	0.774	0.853	0.794	0.822	0.768	0.817	0.78	0.819	0.85	0.805	0.779	0.743
COR-L 105	0.486	0.336	0.418	0.289	0.275	0.368	0.315	0.413	0.446	0.879	0.808	0.853	0.76	0.727	0.635	0.639	0.58	0.279
HCC-827	0.383	0.398	0.412	0.414	0.335	0.83	1.07	1.15	0.971	1.01	0.979	0.942	0.975	0.915	0.944	0.923	0.88	0.513
PC-14	–	0.642	0.523	0.461	0.337	0.761	0.665	0.715	0.553	0.999	0.857	0.818	0.848	0.815	0.9	0.946	0.898	0.826
NCI-H1915	–	0.375	0.384	0.361	0.39	0.97	0.922	0.837	0.958	0.771	0.852	1.02	0.912	–	0.868	0.887	0.846	0.86
LCLC-103H	0.276	0.271	0.316	0.363	0.382	0.663	0.62	0.634	0.651	1.08	0.977	1	1.02	–	0.93	0.934	0.963	0.931
NCI-H2228	0.33	0.25	0.245	0.292	0.325	0.479	0.505	0.573	0.252	0.509	0.393	0.563	0.466	0.603	0.342	0.462	0.379	0.297
EPLC-272H	–	–	0.243	0.266	0.241	0.366	0.265	0.343	0.338	0.955	0.8	0.874	0.53	–	0.722	0.831	0.79	0.639
NCI-H1792	–	–	0.219	0.207	0.289	0.273	0.25	0.225	0.332	0.914	1.02	1.04	1.06	0.92	0.987	0.985	0.946	0.918
NCI-H2126	–	0.393	0.529	0.536	0.406	0.451	0.446	0.489	0.479	0.994	0.998	0.987	1.01	–	0.879	1.02	1.04	0.865
ABC-1	0.25	0.25	0.223	0.215	0.21	0.685	0.817	0.76	0.6	1.03	1.21	1.11	0.868	–	0.928	1.32	1.22	0.967
NCI-H2170	0.351	0.408	0.455	0.359	0.198	0.3	0.279	0.309	0.383	1.19	1.09	1.46	1.11	1.13	0.904	0.694	0.475	0.223
